Laboratory results published in PMC8967716, “Inhibition of calcium-triggered secretion by hydrocarbon-stapled peptides” (Nature, 2022).
Where “and” joins values, the source holds several entries; their conditions need not be identical. Equal entries are not always repeated. Positions of bridges follow the written chain, without caps; N, C: chain ends. Non-standard residues stand in square brackets, D forms with d. Residues, ends and D or L forms follow the SMILES beside them. S5 = C=CCCC[C@](C)(N)C(=O)O

Molecular target: T1, neuronal SNAREs and Syt1(QM) (Rattus norvegicus, UniProt P21707, E295A/R281A/R398A/R399A/Y338W)
T1 construct: made in house
Experiment: Single-vesicle content mixing assay, neuronal SNAREs and Syt1(QM)
Assay type: biochemical

[1] = 10 μM SP9, each value one repeat experiment
[2] = 500 μM Ca2+, 10 μM SP9, each value one repeat experiment

T1 sequence (P21707 whole entry R281A/E295A/Y338W/R398A/R399A): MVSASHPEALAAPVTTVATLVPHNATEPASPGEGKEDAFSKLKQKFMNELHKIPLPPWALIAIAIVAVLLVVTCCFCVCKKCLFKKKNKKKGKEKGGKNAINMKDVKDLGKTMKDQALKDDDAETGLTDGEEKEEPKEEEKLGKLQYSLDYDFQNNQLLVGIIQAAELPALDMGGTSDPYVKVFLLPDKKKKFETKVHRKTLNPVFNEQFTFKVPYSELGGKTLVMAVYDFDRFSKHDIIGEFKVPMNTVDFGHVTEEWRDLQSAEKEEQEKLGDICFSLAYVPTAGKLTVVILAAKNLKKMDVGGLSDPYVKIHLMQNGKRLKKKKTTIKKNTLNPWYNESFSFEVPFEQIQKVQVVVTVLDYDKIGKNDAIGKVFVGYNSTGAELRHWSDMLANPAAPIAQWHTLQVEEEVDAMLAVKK

CC[C@H](C)[C@H](NC(=O)[C@]1(C)CCCC=CCCC[C@](C)(NC(=O)[C@H](CCC(=O)O)NC(=O)[C@H](CCC(=O)O)NC(C)=O)C(=O)N[C@@H](CCCCN)C(=O)N[C@@H](CC(=O)O)C(=O)N[C@@H](C)C(=O)N1)C(=O)N[C@@H](CCCNC(=N)N)C(=O)N[C@@]1(C)CCCC=CCCC[C@@](C)(C(=O)N[C@@H](CC(=O)O)C(=O)N[C@@H](CCC(=O)O)C(=O)N[C@@H](CCC(N)=O)C(=O)N[C@@H](CS)C(N)=O)NC(=O)[C@H](CCSC)NC(=O)[C@H](C(C)C)NC(=O)[C@H](CC(C)C)NC1=O [SP9] (Ac-EE[S5]KDA[S5]IR[S5]LVM[S5]DEQC-NH2; staple 3-7, 10-14)
Ca2+ independent fusion per sec (average probability) [1]: 0.0007051 and 0.0008431 and 0.0008917
Vesicle association [1]: 67 and 40 and 70
Ca2+ triggered fusion accumulative probability (within 1 min) [2]: 0.0513 and 0.04654 and 0.06303
Ca2+ triggered fusion amplitude (first 1-sec time bin) [2]: 0.004413 and 0.005288 and 0.004669
effect on Ca2+-independent or Ca2+-triggered fusion with Syt1(QM) (SP9 vs no peptide): little effect
